We go through eight compounds from PubChem BioAssay (NCI).

Holding throughout (assay): inhibition of tumour cell growth, NCI panel, 48 h
For experiment [1], the system named is ACHN renal.
Experiment [2] deals with CAKI-1 renal.
The subject of experiment [3] is MDA-MB-231 breast.
In experiment [4] the test system is NCI-H23 lung.
The subject of experiment [5] is OVCAR-5 ovarian.
The subject of experiment [6] is PC-3 prostate.
Experiment [7] concerns RPMI-8226 leukemia.
The test system of experiment [8] is SW-620 colon.
Experiment [9] concerns UACC-257 melanoma.
The test system of experiment [10] is EKVX NSCLC.

“And” between values parts separate entries of the source, which are not always exact repeats. Equal entries are not always repeated.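 Cells were grown in 96-well plates and exposed to each compound for 48 hours at five concentrations; endpoints were interpolated linearly between bracketing concentrations, or set to the highest concentration if not reached. GI50 marks 50% less growth. TGI marks complete inhibition of growth.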 Where a SMILES comes first, the peptide text is derived from it. Bridges are numbered along the chain shown (N, C = ends).

Take `Fc1ccc(-c2c(-c3ccncc3)[nH]c3cccnc23)cc1`: the GI50 was 1.63 µM in experiment [1]; 7.43 µM in experiment [2]; more than 25 µM in experiment [3]; more than 25 µM in experiment [4]; more than 25 µM in [5]; more than 25 µM in experiment [6]. Moreover, the GI50 in [7], in [8] and in [9] was more than 25 µM each time. Also, the TGI in experiment [1], in experiment [2], in [3], in experiment [4], in experiment [5] and in [6] was more than 25 µM throughout. Besides, the TGI in [7], in [8] and in experiment [9] was more than 25 µM throughout.

For the compound `COc1ccc(-c2nsc3c2NC(=O)CC3c2cccc(F)c2)cc1` (stereo not given), the GI50 in [1] was 5.95 µM; in experiment [2] it was 4.69 µM; in experiment [3], 6.34 µM; in experiment [4] it was 5.02 µM; in [5], 7.86 µM; in experiment [6] it was 4.93 µM. For the same compound, the GI50 in [7] is 4.18 µM; in experiment [8] it was 3.08 µM. Further, the TGI in [1], in experiment [2], in [3], in [4], in [5] and in experiment [6] was more than 100 µM in each case. The TGI in experiment [7] and in experiment [8] was more than 100 µM throughout.

Turning to `CN(C)c1ccc2cc3c(cc2c1)Oc1ccccc1N3.[Cl][Zn][Cl]`, the GI50 is 1.64 µM in [1]; 2.91 µM in experiment [2]; 7.01 µM in experiment [10]; 1.83 µM in experiment [3]; 4.74 µM in experiment [4]; 1.96 µM in experiment [5]. Also, the GI50 in experiment [6] was 3.54 µM; in experiment [7], 3.98 µM; in experiment [9], 3.16 µM. The TGI in [1] came out at 3.22 µM; in [2], 10.3 µM; in [10] it was 28.5 µM; in [3] it was 4.51 µM; in [4], 21.7 µM; in [5], 6.35 µM. In addition, the TGI was 14.1 µM in experiment [6], 31 µM in experiment [7] and 9.36 µM in experiment [9].

As to `CCC(C)C1NC(=O)C(CC(C)C)NC(=O)C(C(C)C)NC(=O)C2CSSCC(NC1=O)C(=O)N2` (stereo not given) (cyclo(CCVLI); disulfide 1-2; configuration not given here), the TGI worked out at 1.82 µM in experiment [1]; 5.41 µM in experiment [2]; 0.452 µM in [10]; 0.233 µM in experiment [3]; 0.277 µM in experiment [4]; 0.381 µM in [5]. The results for the TGI in experiment [6] and in experiment [9] were 0.329 µM and 0.279 µM, respectively.

On to `CN1CCN(C(=O)[C@@]2(C)CC[C@]3(C)CC[C@]4(C)C(=CC[C@@H]5[C@@]6(C)CC[C@H](OC(=O)c7cccnc7)C(C)(C)[C@@H]6CC[C@]54C)[C@@H]3C2)CC1`, for which the GI50 in experiment [1] is 1.88 µM; in [10], 1.74 µM; in experiment [3], 2.03 µM; in experiment [4], 1.62 µM; in experiment [5] it was 1.69 µM; in experiment [6], 1.61 µM. The GI50 is 1.87 µM in experiment [7], 1.79 µM in experiment [8] and 1.83 µM in experiment [9]. Further, the TGI turned out to be 3.39 µM in [1]; 3.86 µM in [10]; 3.95 µM in experiment [3]; 3.39 µM in experiment [4]; 3.42 µM in experiment [5]; 3.54 µM in [6]. Further, the TGI in experiment [7] turned out to be 5.81 µM; in experiment [8], 3.59 µM; in [9], 3.53 µM.

On to `CCCn1cc(/C=N\N=C2\C(=O)Nc3ccc(C)cc32)c2ccccc21`, for which the GI50 is 3.56 µM in experiment [1]; 2.36 µM in [10]; 1.81 µM in experiment [3]; 3.13 µM in experiment [4]; 4.04 µM in experiment [5]; 1.83 µM in experiment [6]. Also, the GI50 in experiment [7] is 1.33 µM; in experiment [8], 2.97 µM; in experiment [9] it was 12.3 µM. The TGI in experiment [1] is more than 100 µM; in experiment [10], more than 100 µM; in experiment [3], 7.4 µM; in experiment [4] it was 38.2 µM; in experiment [5], 25.8 µM; in experiment [6], 5.17 µM. The TGI in [7] came out at 3.96 µM; in [8], 35.3 µM; in experiment [9], 66.6 µM.

For the compound `COc1ccc(C2CC(c3ccc4ccccc4c3)=NN2c2nc(O)c(C3=c4cc(Cl)ccc4=NC3=O)s2)cc1` (stereo not given), the GI50 in experiment [1] was 0.025 µM and < 0.005 µM; in [2], 0.036 µM and < 0.005 µM; in experiment [10], 0.0313 µM and < 0.005 µM; in experiment [3], 0.021 µM; in [4], 0.0226 µM and < 0.005 µM; in experiment [5], 0.0263 µM and < 0.005 µM. Further, the GI50 in experiment [6] is 0.0283 µM and < 0.005 µM; in [7], 0.0641 µM; in experiment [8], 0.0187 µM and < 0.005 µM. For the same compound, the TGI in experiment [3] is 0.0462 µM; in [8], 0.0374 µM and < 0.005 µM.

Turning to `COc1ccccc1-c1ccc2c(N)c(C(=O)c3ccc4c(c3)OCO4)sc2n1`, the GI50 was 4.07 µM in experiment [1]; 10.2 µM in experiment [2]; 2.81 µM in [3]; 12.9 µM in [4]; 11.2 µM in experiment [5]; 10.6 µM in experiment [6]. For the same compound, the figures for the GI50 in [7], in experiment [8] and in experiment [9] were 6.05 µM, 4.34 µM and 6.1 µM, respectively. In addition, the TGI was 13.5 µM in experiment [1]; 25.9 µM in experiment [2]; 8.59 µM in [3]; 52.8 µM in [4]; 29.5 µM in experiment [5]; 40.3 µM in experiment [6]. Moreover, the TGI in experiment [7] is 59.4 µM; in experiment [8], more than 100 µM; in experiment [9], 22.7 µM.
